These results are taken from US20030036562A1, “Water-soluble dendrimeric fullerene as anti-HIV therapeutic” (priority 2001, published 2003).

Read-outs that look alike come from different tables or passages of the source.

For data set [1] the following is noted: cited from earlier work.
The next data set concerns M184V (3TC resistant). The note with it: cited from earlier work.
A further data set concerns HIV-1 (wild type). The note with it: FDA-approved drugs; cited from earlier work.
The next data set concerns the target T1, Protease (Human immunodeficiency virus type 1 group M subtype B, UniProt P04585).
T1 construct: Protease
The note with it: FDA-approved drugs; cited from earlier work.

For data set [2] the following is noted: in vivo; cited from earlier work.
The target of a further data set is Anti-C60. As to conditions: measured inhibition of bovine thyroglobulin-fullerene conjugate binding by test compound; cited from earlier work.
For data set [3], the target named is T2, recombinant HIV-1 p66/51 reverse transcriptase (Human immunodeficiency virus type 1 group M subtype B, UniProt P04585).
T2 construct: recombinant HIV-1 p66/51 reverse transcriptase
Nature of the data set: Inhibition of p66/51 reverse transcriptase. It is filed as biochemical.

For the next data set, the target named is RT (Human immunodeficiency virus type 1 group M subtype B, UniProt P04585). As to conditions: FDA-approved drugs; cited from earlier work.
The test system of the next data set is H9 cells. The note with it: cited from earlier work.
For a further data set, the system named is Vero cells. As to conditions: cited from earlier work.
Data set [4] deals with CEM (human lymphoblastoid) cells. The note with it: cited from earlier work.
Setting [5] is: M184V, common RT mutant, FDA-approved drugs, read-out: EC50.

In the case of `c12c3c4c5c1c1c6c7c2c2c8c3c3c9c4c4c%10c5c5c1c1c6c6c%11c7c2c2c7c8c3c3c8c9c4c4c9c%10c5c5c1c1c6c6c%11c2c2c7c3c3c8c4c4c9c5c1c1c6c2c3c41` [unmodified C60, C60], in data set [1], the “toxicity in vivo (in words)” value is reported as “non toxic even at high doses”.

Turning to `CC(C)c1nc(CN(C)C(=O)N[C@H](C(=O)N[C@@H](Cc2ccccc2)C[C@H](O)[C@H](Cc2ccccc2)NC(=O)OCc2cncs2)C(C)C)cs1` [Ritonavir], the EC50 was 800 nM in the data set with M184V (3TC resistant) (setting [5]) and 45 nM in the data set on HIV-1 (wild type). At Protease, the “Protease Inhibitor” value is “yes”. For the same compound, the “Oral Bioavailability” value in data set [2] is listed as “˜78%”.

Turning to `CC(C)CN(C[C@@H](O)[C@H](Cc1ccccc1)NC(=O)O[C@H]1CCOC1)S(=O)(=O)c1ccc(N)cc1` [Amprenavir], the EC50 in the data set on M184V (3TC resistant) (setting [5]) was 500 nM; in the data set on HIV-1 (wild type), 54 nM. Also, on Protease, the “Protease Inhibitor” value is on record as “yes”.

C3-carboxyfullerene: the dissociation constant Kd on Anti-C60 is 250 µg/mL.

Consider D3-carboxyfullerene, for which the Kd on Anti-C60 is 38 µg/mL.

`CC(C)(C)NC(=O)[C@@H]1CN(Cc2cccnc2)CCN1C[C@@H](O)C[C@@H](Cc1ccccc1)C(=O)N[C@H]1c2ccccc2C[C@H]1O` [Indinavir]: in the data set with HIV-1 (wild type), the EC50 was ~100 nM. The “Protease Inhibitor” value at Protease is “yes”.

As for fullerenol [C], the Kd on Anti-C60 is 750 µg/mL.

For the compound `Nc1ccn([C@@H]2CS[C@H](CO)O2)c(=O)n1` [Compound 3TC, 3TC], the EC50 is > 100000 nM with M184V (3TC resistant) (setting [5]); > 100000 nM in the data set on M184V (3TC resistant) (text b84, unit inferred, read-out: activity against M184V); 180 nM in the data set with HIV-1 (wild type).

`Cc1c(O)cccc1C(=O)N[C@@H](CSc1ccccc1)[C@H](O)CN1C[C@H]2CCCC[C@H]2C[C@H]1C(=O)NC(C)(C)C` [Nelfinavir]: the EC50 with M184V (3TC resistant) (setting [5]) is 400 nM. On Protease, the “Protease Inhibitor” value is given as “yes”. Also, the “Oral Bioavailability” value in [2] is 52%.

For `Cc1cn([C@H]2C[C@H](N=[N+]=[N-])[C@@H](CO)O2)c(=O)[nH]c1=O` [AZT], the IC50 in data set [3] (poly (rA)n oligo (dT)12 template primer, text b87, unit inferred, read-out: IC50 against RT) stood at 21 nM. The EC50 with M184V (3TC resistant) (setting [5]) was 10 nM; with HIV-1 (wild type), 50 nM. Besides, the “RT Inhibitor” value on RT is listed as “yes”. Further, the “cytotoxicity (in words)” value (in the data set on H9 cells; with Vero cells; in data set [4]) was “cytotoxic” throughout.

In the case of `Cc1cn([C@H]2C[C@H](N=[N+]=[N-])[C@@H](CO[P@](=O)(O)O[P@](=O)(O)OP(=O)(O)O)O2)c(=O)[nH]c1=O` [AZTTP], the inhibition at 0.001 µM in [3] (0.001 μM) was determined as 8%. The inhibition at 0.01 µM in data set [3] (0.01 μM) was determined as 35.7%. The inhibition at 0.1 µM in data set [3] (0.1 μM) was found to be 72.7%. Besides, in [3] (1 μM), the inhibition at 1 µM was determined as 97%. Moreover, the inhibition at 10 µM in data set [3] (10 μM) is 99.6%. Moreover, the “1C 90” value in [3] (p66/51 1 unit/rxn, (rA)n.(dT)12-18) was 0.27 µM. The IC50 in [3] (p66/51 1 unit/rxn, (rA)n.(dT)12-18, read-out: 1C 50) came to 21 nM.

For `CC(C)(C)NC(=O)[C@@H]1C[C@@H]2CCCC[C@@H]2CN1C[C@@H](O)[C@H](Cc1ccccc1)NC(=O)[C@H](CC(N)=O)NC(=O)c1ccc2ccccc2n1` [Saquinavir], on Protease, the “Protease Inhibitor” value is on record as “yes”. Moreover, the “Oral Bioavailability” value in [2] is “˜4%”.

By Kd is commonly meant the constant that tells how readily two partners part at equilibrium. For orientation: inhibition means the drop in the measured response relative to a control, in per cent.
